Results from ChEMBL document CHEMBL5726562, “Pyridinyl and fused pyridinyl triazolone derivatives” (2017).

Molecular target: Tyrosine-protein kinase BTK (Homo sapiens, UniProt Q06187)
Experiment: Inhibition Assay: The inhibitory properties of compounds relative to BTK is determined using a black 384-well-plate format in a buffer which contains 50 mM Hepes, 10 mM NaCl, 10 mM MgCl2, 0.2 mM EDTA, 0.01% Brij35®, 1 mM DTT, and 0.1 mg/mL BSA at pH 7.3. The test compound is prepared in DMSO using 2-fold serial dilutions for 11 data points, which are added to the buffer so that each dilution contains 3% DMSO. […] The reaction mixtures are incubated at room temperature for 60 minutes and then quenched by adding 25 μL of 50 mM EDTA. To quantify the fluorescent-labeled substrate and product following reaction, the test plate is loaded on a Caliper LC-3000, which measures percent of conversion by microfluidic-based separation.

Tyrosine-protein kinase BTK, sequence (Q06187 whole entry): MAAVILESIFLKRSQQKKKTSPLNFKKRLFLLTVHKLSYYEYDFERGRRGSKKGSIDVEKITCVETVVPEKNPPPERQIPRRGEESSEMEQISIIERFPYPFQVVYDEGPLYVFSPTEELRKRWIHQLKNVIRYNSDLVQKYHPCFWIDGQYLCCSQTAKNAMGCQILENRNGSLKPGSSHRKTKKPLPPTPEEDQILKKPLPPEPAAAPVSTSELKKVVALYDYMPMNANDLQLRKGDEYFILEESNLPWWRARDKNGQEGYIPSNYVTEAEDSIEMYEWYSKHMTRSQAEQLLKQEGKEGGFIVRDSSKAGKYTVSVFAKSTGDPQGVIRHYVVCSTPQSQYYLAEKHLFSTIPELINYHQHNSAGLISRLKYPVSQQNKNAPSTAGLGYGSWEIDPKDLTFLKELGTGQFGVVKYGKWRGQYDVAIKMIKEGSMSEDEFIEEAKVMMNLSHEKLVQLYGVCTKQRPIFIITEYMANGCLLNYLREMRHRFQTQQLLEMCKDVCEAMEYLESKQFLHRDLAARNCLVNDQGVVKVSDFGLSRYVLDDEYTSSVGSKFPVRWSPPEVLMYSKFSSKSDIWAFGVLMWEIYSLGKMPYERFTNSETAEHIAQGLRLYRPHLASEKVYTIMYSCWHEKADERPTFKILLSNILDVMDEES

Row | IC50 [nM] | Structure (SMILES)
1 | < 1.26 | C=CC(=O)N1CC[C@H](Oc2nc(-c3n[nH]c(=O)[nH]3)cc3cccc(F)c23)C1
2 | < 1.26 | C=CC(=O)N1CC[C@H](Oc2nc(-c3n[nH]c(=O)[nH]3)cc3ccc(Cl)cc23)C1
